The values that follow come from PubChem BioAssay (NCI).

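These data come from cells grown in 96-well plates and exposed to compound for 48 hours at five concentrations. At the GI50, growth is halved. TGI denotes the concentration required for complete inhibition of growth.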

Holding throughout (assay): NCI anticancer screen, dose series, 48 h
Assay [1] relates to BT-549 breast.
The test system of assay [2] is OVCAR-5 ovarian.
In assay [3] the test system is SK-OV-3 ovarian.
Assay [4] concerns KM12 colon.
Assay [5] relates to SF-539 CNS.
The subject of assay [6] is SNB-75 CNS.
For assay [7], the system named is MDA-MB-435.
Assay [8] has as its system TK-10 renal.
Assay [9] concerns HCC-2998 colon.
In assay [10] the test system is CCRF-CEM leukemia.

Consider `CCOC(=O)/C(C#N)=C/Nc1ccc(-c2nc3ccccc3[nH]2)cc1`, for which the GI50 in assay [1] is 34.1 µM; in assay [2], 50.8 µM; in assay [3], 25.6 µM; in assay [4], 16.1 µM; in assay [5] it was 21.5 µM; in assay [6], 24.2 µM. In addition, the GI50 was 33.8 µM in [7] and 16.8 µM in assay [8]. Moreover, the TGI in assay [1] was 85.5 µM; in [2], more than 100 µM; in assay [3], 99.3 µM; in [4] it was 44.1 µM; in assay [5], 40.9 µM; in [6], 56.7 µM. Besides, the TGI is more than 100 µM in assay [7] and 54.2 µM in assay [8].

As for `Cc1nnc(-c2ccc(-c3nc4ccccc4o3)cc2)o1`, the GI50 is 65.5 µM in assay [1]; 78.8 µM in assay [9]; 44.8 µM in [2]; 29.7 µM in assay [3]; 43.3 µM in assay [4]; more than 100 µM in [5]. Besides, the GI50 in assay [7] and in assay [8] was more than 100 µM each time. For the same compound, the TGI in assay [1] is more than 100 µM; in [9], more than 100 µM; in [2] it was more than 100 µM; in [3], 77.7 µM; in assay [4], more than 100 µM; in assay [5] it was more than 100 µM. Also, the TGI in [7] and in [8] was more than 100 µM in each case.

For the compound `CO[C@H](C(=O)O)[C@@H]1Cc2cc3cc(OC4CC(OC5CC(O)C(O)C(C)O5)C(O)C(C)O4)c(C)c(O)c3c(O)c2C(=O)[C@H]1OC1CC(OC2CC(OC3CC(C)(O)C(O)C(C)O3)C(O)C(C)O2)C(O)C(C)O1` (stereo partly specified), the GI50 in assay [1] was 0.136 µM; in assay [2] it was 0.375 µM; in assay [3] it was 0.445 µM; in assay [4] it was 0.233 µM; in [5], 0.164 µM; in [6] it was 0.128 µM. For the same compound, the GI50 in assay [7] is 0.309 µM; in [8], 1.45 µM; in assay [10], 0.33 µM. For the same compound, the TGI in [1] is 1.13 µM; in [2] it was more than 32.5 µM; in assay [3], more than 32.5 µM; in assay [4], 2.59 µM; in [5] it was 2.02 µM; in assay [6] it was 0.741 µM. Moreover, the TGI in assay [7] is 1.61 µM; in assay [8], more than 32.5 µM; in assay [10] it was more than 32.5 µM.

Take `COc1cc2c(cc1OC)-c1ncc3cc4c(cc3c1C2)OCO4`: the GI50 in assay [2] was 39.6 µM; in assay [3] it was 53 µM; in [4] it was 38.1 µM; in assay [5] it was 23.4 µM; in assay [6], 64.1 µM; in assay [7] it was 63.4 µM. For the same compound, the figures for the GI50 in [8] and in assay [10] were 43.2 µM and 6.36 µM, respectively. Moreover, the TGI in assay [2] is 97 µM; in assay [3], more than 100 µM; in assay [4], more than 100 µM; in assay [5], 56.1 µM; in assay [6], more than 100 µM; in [7], more than 100 µM. The values for the TGI in assay [8] and in assay [10] were more than 100 µM and 21.4 µM, respectively.

Regarding `COc1c(N2CCN(Cn3c(O)c(N=NC(=O)c4ccncc4)c4cc(F)ccc43)C(C)C2)c(F)cc2c(=O)c(C(=O)O)cn(C3CC3)c12` (stereo unspecified), the GI50 in [1] was 37.5 µM; in assay [2], 33.3 µM; in assay [3], 39.8 µM; in assay [4], more than 50 µM; in assay [5], 14.6 µM; in assay [6] it was more than 50 µM. Also, the GI50 in [7] is more than 50 µM; in [8], 12.5 µM. The TGI in assay [1], in assay [2], in [3], in [4], in assay [5] and in [6] was more than 50 µM in each case. The TGI in assay [7] is more than 50 µM; in [8], 37.2 µM.

On to `N#Cc1cccc(OCc2ccccc2COc2cccc(C#N)c2)c1`, for which the GI50 was 36.7 µM in assay [1]; more than 100 µM in assay [9]; 87 µM in assay [2]; 35.7 µM in [3]; 18.8 µM in assay [5]; 29.7 µM in assay [6]. Also, the GI50 is 25.4 µM in assay [7] and 11.8 µM in assay [8]. Besides, the TGI in assay [1] was 93.3 µM; in [9] it was more than 100 µM; in [2], more than 100 µM; in assay [3], more than 100 µM; in assay [5], 35.5 µM; in [6] it was 70.4 µM. In addition, the TGI in [7] is more than 100 µM; in assay [8] it was 29.5 µM.

Take `O=C(c1ccccc1)C1C(C(=O)c2ccccc2)C(c2ccccc2)N(c2ccccc2)C1c1ccccc1` (stereo unspecified): the TGI in assay [1], in assay [9], in assay [2], in assay [5], in assay [7] and in assay [8] was more than 100 µM throughout. The compound further yielded a TGI in assay [10] of more than 100 µM.

Take `C#CCN(Cc1nc2cc(C(F)(F)F)ccc2nc1-c1ccccc1)c1ccc(F)c(F)c1`: the GI50 was 53.1 µM in [1]; 44.8 µM in assay [9]; more than 100 µM in assay [2]; more than 100 µM in assay [3]; 29.2 µM in assay [5]; more than 100 µM in assay [6]. The GI50 in [7] is 37.8 µM; in assay [8], more than 100 µM; in [10], 24 µM. Further, the TGI in assay [1] is more than 100 µM; in assay [9], 96.9 µM; in [2], more than 100 µM; in assay [3], more than 100 µM; in [5] it was more than 100 µM; in assay [6], more than 100 µM. For the same compound, the TGI in assay [7], in [8] and in assay [10] was more than 100 µM throughout.

Consider `CCCn1c(N)c(C(=O)CNc2ccc(I)cc2)c(=O)[nH]c1=O`, for which the GI50 in assay [1] was more than 64.4 µM; in assay [9] it was 4.23 µM; in assay [2], more than 100 µM; in [3], more than 100 µM; in [5], 0.84 µM; in assay [6], 2.12 µM. For the same compound, the GI50 in assay [7] was 6.01 µM; in assay [8], 16.7 µM; in [10], 0.543 µM. For the same compound, the TGI is more than 100 µM in assay [1]; more than 90.6 µM in [9]; more than 100 µM in assay [2]; more than 100 µM in [3]; more than 45.6 µM in assay [5]; more than 40.1 µM in assay [6]. The TGI in [7], in [8] and in assay [10] was more than 100 µM in each case.
